Results reported in the supplement of paper PMC11451515.

Key:
Details in all cases: 48 h
[1] = tested on: NOMO1; assay: AUC of viability dose-response curve (% viability x log10 dose units); higher = less sensitive
Method in brief: (§1)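 Over 48 h at 37°C, leukemia cells in 1536-well plates (500 or 1000 cells/well), adapted to each medium, received library compounds in DMSO at 11 threefold doses from 47 μM to 0.79 nM. CellTiter-Glo One luminescence, normalised per plate to DMSO and cell-free wells, was fitted by a four-parameter log-logistic function of log10 dose. The area under the curve was then integrated by trapezoidal rule, after scaling curves above full viability and removing those that failed quality control.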

[2] = tested on: SEM cells; assay: as above
Method in brief: as §1

[3] = tested on: P12-Ichikawa; assay: as above
Method in brief: as §1

[4] = tested on: NOMO1; assay: cell viability relative to DMSO control; higher = less cytotoxic
Method in brief: (§2)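 Library compounds in DMSO were pin-dosed into 1536-well plates (5 μl) holding NOMO1 or SEM (500 cells/well) or P12-Ichikawa (1000 cells/well) leukemia cells, across an 11-point threefold series of 47 μM to 0.79 nM. Each cell line had been adapted for at least four passages in each medium. CellTiter-Glo One luminescence was read after 48 h at 37°C. Viability is the per-plate percentage relative to DMSO wells, with cell-free wells as background.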

[5] = tested on: SEM cells; assay: as above
Method in brief: as §2

[6] = tested on: P12-Ichikawa; assay: as above
Method in brief: as §2

Cc1[nH]c(/C=C2\C(=O)Nc3ccccc32)c(C)c1CCC(=O)O
AUC of viability dose-response curve
Details	[1]	[2]	[3]
HPLM + 10% dialyzed FBS	433	245	406
RPMI 5 mM glucose + 10% FBS	434	288	408
RPMI 5 mM glucose + 10% dialyzed FBS	457	236	419

cell viability [%]
Details	[4]	[5]	[6]
HPLM + 10% dialyzed FBS, 0.000781 µM	92.3	55	95.3
HPLM + 10% dialyzed FBS, 0.00234 µM	101	85.6	101
HPLM + 10% dialyzed FBS, 0.00702 µM	108	76.3	99.3
HPLM + 10% dialyzed FBS, 0.0211 µM	114	81.6	105
HPLM + 10% dialyzed FBS, 0.0632 µM	113	68.9	111
HPLM + 10% dialyzed FBS, 0.19 µM	106	84	114
HPLM + 10% dialyzed FBS, 0.569 µM	99.9	6.38	88.7
HPLM + 10% dialyzed FBS, 1.71 µM	118	32.1	104
HPLM + 10% dialyzed FBS, 5.12 µM	105	26.4	73.1
HPLM + 10% dialyzed FBS, 15.4 µM	51.3	26.5	32.2
HPLM + 10% dialyzed FBS, 46.1 µM	23.8	18.7	6.87
RPMI 5 mM glucose + 10% FBS, 0.000781 µM	95.9	71.9	105
RPMI 5 mM glucose + 10% FBS, 0.00234 µM	112	97.7	103
RPMI 5 mM glucose + 10% FBS, 0.00702 µM	108	108	93.9
RPMI 5 mM glucose + 10% FBS, 0.0211 µM	114	82.6	110
RPMI 5 mM glucose + 10% FBS, 0.0632 µM	115	82.4	110
RPMI 5 mM glucose + 10% FBS, 0.19 µM	123	86.9	118
RPMI 5 mM glucose + 10% FBS, 0.569 µM	111	6.07	87.1
RPMI 5 mM glucose + 10% FBS, 1.71 µM	104	37.1	106
RPMI 5 mM glucose + 10% FBS, 5.12 µM	110	39.1	72.9
RPMI 5 mM glucose + 10% FBS, 15.4 µM	58.7	30.9	42
RPMI 5 mM glucose + 10% FBS, 46.1 µM	18.4	18.3	7.11
RPMI 5 mM glucose + 10% dialyzed FBS, 0.000781 µM	97	47.4	102
RPMI 5 mM glucose + 10% dialyzed FBS, 0.00234 µM	118	82	105
RPMI 5 mM glucose + 10% dialyzed FBS, 0.00702 µM	96.1	80.5	113
RPMI 5 mM glucose + 10% dialyzed FBS, 0.0211 µM	98.1	76.1	110
RPMI 5 mM glucose + 10% dialyzed FBS, 0.0632 µM	113	75.5	113
RPMI 5 mM glucose + 10% dialyzed FBS, 0.19 µM	106	83.3	112
RPMI 5 mM glucose + 10% dialyzed FBS, 0.569 µM	102	5.75	91.1
RPMI 5 mM glucose + 10% dialyzed FBS, 1.71 µM	109	26.5	101
RPMI 5 mM glucose + 10% dialyzed FBS, 5.12 µM	103	27.6	82.3
RPMI 5 mM glucose + 10% dialyzed FBS, 15.4 µM	101	22	65.2
RPMI 5 mM glucose + 10% dialyzed FBS, 46.1 µM	22.7	15.4	11.2

CCOC(=O)c1cncn1[C@H](C)c1ccccc1
AUC of viability dose-response curve
Details	[1]	[2]	[3]
HPLM + 10% dialyzed FBS	443	438	463
RPMI 5 mM glucose + 10% FBS	477	468	452
RPMI 5 mM glucose + 10% dialyzed FBS	442	435	466

cell viability [%]
Details	[4]	[5]	[6]
HPLM + 10% dialyzed FBS, 0.000781 µM	–	101	122
HPLM + 10% dialyzed FBS, 0.00234 µM	–	92.8	123
HPLM + 10% dialyzed FBS, 0.00702 µM	–	92.6	115
HPLM + 10% dialyzed FBS, 0.0211 µM	–	89.6	127
HPLM + 10% dialyzed FBS, 0.0632 µM	–	108	128
HPLM + 10% dialyzed FBS, 0.19 µM	–	96.9	121
HPLM + 10% dialyzed FBS, 0.569 µM	–	23.1	125
HPLM + 10% dialyzed FBS, 1.71 µM	–	106	121
HPLM + 10% dialyzed FBS, 5.12 µM	–	113	112
HPLM + 10% dialyzed FBS, 15.4 µM	–	96.2	109
HPLM + 10% dialyzed FBS, 46.1 µM	–	89.8	106
RPMI 5 mM glucose + 10% FBS, 0.000781 µM	118	111	125
RPMI 5 mM glucose + 10% FBS, 0.00234 µM	116	110	129
RPMI 5 mM glucose + 10% FBS, 0.00702 µM	135	97.4	122
RPMI 5 mM glucose + 10% FBS, 0.0211 µM	128	109	136
RPMI 5 mM glucose + 10% FBS, 0.0632 µM	112	112	122
RPMI 5 mM glucose + 10% FBS, 0.19 µM	115	114	116
RPMI 5 mM glucose + 10% FBS, 0.569 µM	121	21.6	121
RPMI 5 mM glucose + 10% FBS, 1.71 µM	127	107	113
RPMI 5 mM glucose + 10% FBS, 5.12 µM	117	117	115
RPMI 5 mM glucose + 10% FBS, 15.4 µM	119	108	114
RPMI 5 mM glucose + 10% FBS, 46.1 µM	125	111	120
RPMI 5 mM glucose + 10% dialyzed FBS, 0.000781 µM	–	118	121
RPMI 5 mM glucose + 10% dialyzed FBS, 0.00234 µM	–	116	126
RPMI 5 mM glucose + 10% dialyzed FBS, 0.00702 µM	–	93.8	119
RPMI 5 mM glucose + 10% dialyzed FBS, 0.0211 µM	–	109	124
RPMI 5 mM glucose + 10% dialyzed FBS, 0.0632 µM	–	128	128
RPMI 5 mM glucose + 10% dialyzed FBS, 0.19 µM	–	102	122
RPMI 5 mM glucose + 10% dialyzed FBS, 0.569 µM	–	26.4	126
RPMI 5 mM glucose + 10% dialyzed FBS, 1.71 µM	–	115	121
RPMI 5 mM glucose + 10% dialyzed FBS, 5.12 µM	–	98.9	115
RPMI 5 mM glucose + 10% dialyzed FBS, 15.4 µM	–	106	113
RPMI 5 mM glucose + 10% dialyzed FBS, 46.1 µM	–	97.7	111
